Laboratory results reported in patent publication US12472223B2, “Methods for reducing symptoms of multiple sclerosis using a six-amino acid long peptide that inhibits CD40-CD154 interaction” (OP-T LLC, priority 2019, dated 2025).

Legend:
CD4+ and CD8+ cells = assay: CD4/CD8 ratio in blood of peptide-treated NOD mice (flow cytometry); type: in vivo, mouse
Experimental: (§1) Peptides were designed based on the amino acid sequence of mouse CD154 protein (SEQ ID NO:1) in the SwissPro database. These pre-designed peptides were then ordered from as made-to-order by New England Peptide. The lyophilized peptides were suspended in phosphate buffered saline at 1 mg/ml. 100 μg of a particular peptide was then injected into the tail vein of 8-9 week old NOD mice. Control mice received 100 μl of phosphate buffered saline. This is well before the onset of diabetes, but after damage to pancreatic islets has begun. Three days after the initial injection, another 100 μg of peptide (or 100 μl of phosphate buffered saline in the case of the Control mice) was injected into the tail vein. Mice were then injected with peptide (or phosphate buffered saline) on a weekly basis. At 10 weeks of age, mice were monitored for diabetes, as indicated by a blood glucose level greater than 250 mg/dL for three consecutive days. During this time, blood was also taken from the tail vein, or by sub-mandibular venal puncture, and the level of CD4+ and CD8+ cells determined by flow cytometry using antibodies for CD4 protein and CD8 protein.

CD40 = assay: FITC-conjugated KGYY6 staining of PBMC, dLN and splenic lymphocytes; type: binding, mouse
Excerpt: To confirm that KGYY6 binds to the intended target cells, peripheral blood was […], dLN lymphocytes, and splenic lymphocytes from mice at 6 and 13 days out from receiving the full EAE regimen. These cells were then stained with an FITC-conjugated KGYY6.
To confirm that the KGYY6 peptide binds specifically to CD40, PBMC was stained from C57BL/6 mice that have the CD154-interacting domain of CD40 knocked out (B6.CD40KO).
FIG. 24A is a dot plot of PBMC, dLN, and splenic lymphocytes that were harvested and then stained. […] CD40 with heat-mapping for KGYY6. Dot plots on the right are CD62L v. CD44 with heat-mapping for KGYY6. […] The results shown in FIG. 24A are from 6 days post EAE induction. FIG. 24B is a histogram depicting KGYY6 staining of B6.CD40KO, control, non-induced C57BL/6, and EAE-induced C57BL/6 mice, 6 and 13 days post induction. Data represents two mice at day 6, three mice at day 13, all with similar results.

CD69 = CD69 expression on T cells from dLN and spleen of KGYY6 treated EAE mice; type: in vivo, mouse; details: for number of Th40 cells expressing CD69: after 33 days
Experimental: In this study, the number of CD69 expressing cells were measured and determined in draining lymph nodes (dLN) and spleens harvested from EAE mice at the end of the studies as described in Examples 7, 8, and 9 and the administration of KGYY6, after 33 days.
Lymphocytes from dLN or spleen were stained and gated on the Th40 or conventional CD4 T cells then CD69 expression was analyzed.

[1] = test system: Th40 or conventional CD4 T cells; assay: Memory cell and Th40 cell levels in KGYY6 treated EAE mice; type: in vivo, mouse
Experimental: This study sought to determine whether treatment with KGYY6 had any effect on memory cell levels when administered as described in Example 7 above.
C57BL/6 mice were EAE induced then lymphocytes were stained and gated on Th40 or conventional CD4 T cells and effector and central memory cell levels analyzed in dLN (FIGS. 22A-22D) and spleen (FIGS. 23A-D). Significance was calculated by t-test.

intracellular cytokines = assay: Intracellular cytokine expression in Th40 and conventional CD4 T cells ex vivo from KGYY6 treated EAE mice; parameters: species or system mouse
Experimental: Intracellular cytokine expression profiles in Th40 and conventional CD4 T cells were examined immediately ex-vivo after 33 days and at the end of the study as described in Example 7.
Other cytokines, such as TNFα, IFNγ, IL-2, and IL-17A were unchanged in response to KGYY6 treatment in both cell types. […] Lymphocytes from dLN or spleen were stained and gated on the Th40 or conventional CD4 T cells then intracellular levels were analyzed. FIGS. 18A-D represent the Th40 cells from spleen. FIGS. 19A-D represent the Th40 cells from dLN. FIGS. 20A-D represent conventional CD4 T cells from the spleen. FIGS. 21A-D represent conventional CD4 T cells from dLN.

NOD mice = assay: Development of diabetes in NOD mice treated with CD154 peptides; type: in vivo, mouse; details: 100 μg peptide into tail vein of 8-9 week old NOD mice, again after 3 days, then weekly; diabetes = blood glucose >250 mg/dL for three consecutive days
Experimental: as §1

EAE induced C57BL/6 mice = assay: EAE disease score in MOG35-55 induced C57BL/6 mice; type: in vivo, mouse
Excerpt: One group of mice-C57BL/6 mice from Taconic (Hudson, NY, USA) received KGYY6 (SEQ ID NO: 29) intravenous (IV) injections 3 days and 1 day prior to EAE induction, while another control group received a vehicle of phosphate buffered saline (PBS). EAE was then induced and the mice started to show symptoms on day 10, which is standard for these mice under these conditions. This is further depicted in FIG. 11. On days 13, 20, and 27, the KGYY6 group of mice receive a boost of peptide, while the other group again received PBS via IV injection. […] By day 13, there was a statistically significant difference that lasted throughout the experiment. In FIG. 11—*—asterisks—denote p-value: *—one asterisk is <0.05; **—two asterisks is <0.01; […] is <0.001; and ****—four asterisks is <0.0001. This is a two-way ANOVA with Sidak's multiple comparisons test. Arrows in above lines in FIG. 11 represent days −3, −1, 13, 20, and 27, which correspond to days on which the mice received the KGYY6. Mice were disease scored daily in this study as described in more detail below.
The EAE mouse model can be highly variable even when attempting to control all possible parameters. This variability in EAE may be due to seasonal variations as well as litter differences in the mice. In order to minimize litter-to-litter and seasonal variations, experiments and studies were performed that had 10 mice per group and the mice were randomly mixed once they arrived from the vendor. Female 10-12 week old C57BL/6 mice were immunized subcutaneously on the upper back/neck with 100 μl completely emulsified MOG35-55 peptide (50 μg in 50 μl PBS) and complete Freund's adjuvant (CFA; 75 μg M. Tuberculosis H37 RA (Becton Dickinson and Company (Franklin Lake, NJ, USA)) in 50 μl incomplete Freund's adjuvant (mineral oil)), followed by i.p. pertussis toxin (PT; 200 ng (Sigma-Aldrich® (St. Louis, MO, USA)) in 100 μl PBS) injections. Mice were then randomly assigned to a treatment cohort or vehicle control cohort. One cohort of mice received intravenous injections of the KGYY6 (SEQ ID NO: 29)—25 μg in 100 μl PBS per mouse on days −3, −1, 13, 20, and 27 as described above. Day 0 is the reference starting point for EAE induction. Another cohort received peptide on days −3, −1, 6, 11, 13, and 15. Vehicle control mice received injections of PBS.
All mice were monitored daily for disease and scored in the following manner: 0—no abnormalities; 0.5—clutching hind limbs; 1—limp tail or weak hind limbs and/or wobbly gait; 1.5—limp tail and clutching hind limbs; 2—limp tail and weak hind limbs and/or wobbly gait wherein the mouse supports itself and propels itself using hind limbs; 2.5—limp tail and weak hind limbs and/or wobbly gait wherein the mouse cannot support and propel itself using hind limbs, but the paws are moving. 3—limp tail and one weak hind limb, while the other hind limb is completely paralyzed wherein the mouse uses the weak hind limb to propel itself in some fashion. […] 5—complete paralysis of hind quarter and weak forelimb(s). The data are reported as the mean daily clinical score for all animals in each group. Mice reaching a level 5 or losing more than 20% of their bodyweight are euthanized.
For this study, a group of EAE induced mice were treated with KGYY6 via intravenous (IV) injections on days 11, 13, and 15. Another group of mice were pretreated on days −3 and −1, and received further treatments on days 6, 11, 13, and 15. […]

CD62L = CD62L expressing T cells from dLN and spleen of KGYY6 treated EAE mice; type: in vivo, mouse; details: Th40 and conventional CD4 T cells, versus PBS
Excerpt: L-selectins are expressed on T cells and, depending upon activation status, expression rapidly cycles between high and low levels, thus allowing cells to crawl to areas of inflammation, and to extravasate into the tissue. (Mao-Draayer, Y., et al., Clinical Immunol. 175:10-5, 2017; Butcher, E. C., et al., Science, 272 (5258): 60-6, 1997). CD62L is an L-selectin that has generally been associated with naïve T cells, given its importance in lymph node retention. (Chao, C. C., et al., J. Immunol., 159:1686, 1997; Tedder, T. F., et al., Behring Inst. Mitt., 92:165, 1993). Rather than considering CD62L as a biomarker for naïve T cells, it may be possible that CD62L may be involved in lymph node retention of potentially pathogenic effector cells. The number of CD62L expressing Th40 and conventional CD4 T cells from both spleens and dLN of KGYY6 treated mice were compared to mice treated with vehicle (PBS) only (the control).

[2] = spleen and dLN, Th40 or conventional CD4 T cells
[3] = Th40 and conventional CD4 T cells, dLN and spleen

## CSCC[C@H](NC(=O)[C@@H](NC(=O)[C@H](Cc1ccc(O)cc1)NC(=O)[C@H](Cc1ccc(O)cc1)NC(=O)CNC(=O)[C@H](CCCCN)NC(=O)[C@H](CCCCN)NC(=O)[C@H](C)NC(=O)[C@H](Cc1c[nH]c2ccccc12)NC(=O)[C@H](CCC(N)=O)NC(=O)[C@H](CC(C)C)NC(=O)[C@@H](N)C(C)C)[C@@H](C)O)C(=O)N[C@@H](CCCCN)C(=O)N[C@@H](CO)C(=O)N[C@@H](CC(N)=O)C(=O)O [15-mer peptide, VLQWAKKGYYTMKSN]
CD4+ and CD8+ cells
  compromise of the immune system as determined by the CD4/CD8 ratio: did not result in compromise of the immune system

## AKKGYY [KGYY6, 6-amino acid core region of the 15-mer]
CD40; PBMC and spleen samples
  staining of memory cells (CD62L versus CD44): stained primarily effector (CD44^+CD62L^−) and central memory (CD44^+CD62L^+) cells
CD40; PBMC, CD154-interacting domain of CD40 knocked out
  staining of B6.CD40KO cells: did not stain the B6.CD40KO cells
CD40; PBMC, dLN, spleen
  staining of CD40- cells: not the CD40^− cells
CD40; PBMC, dLN, spleen, 6 and 13 days post EAE induction
  staining of CD4+CD40+ cells: stained the CD4^+CD40^+ cells
CD40; dLN samples
  staining of memory cells (CD62L versus CD44): more diffuse pattern in dLN samples
CD40; non-induced and EAE-induced C57BL/6 mice
  staining of C57BL/6 PBMC: readily stained both the non-induced and EAE-induced C57BL/6 mice
CD69; Th40 cells from spleen, versus vehicle
  CD69 expressed per cell: significantly more CD69 per cell
CD69; conventional CD4 T cells
  CD69 expressed per cell: did no change the amount of CD69 per cell
CD69; dLN and spleen, versus controls
  number of conventional CD4 T cells expressing CD69: increased by KGYY6 treatment
CD69; dLN, versus vehicle
  number of Th40 cells expressing CD69: increased
CD69; spleen, versus untreated
  number of Th40 cells expressing CD69: significantly greater number
[1]; EAE mice treated with KGYY6
  Th40 cell population: did not cause a decrease in the Th40 cell population
[1]; [2]
  CD44+CD62L+ (central memory) cell levels: no difference in the levels of those memory phenotypes
  CD44+CD62L- (effector memory) cell levels: no difference in the levels of those memory phenotypes
Intracellular cytokines; [3]
  IFNγ: unchanged
  IL-2: unchanged
  IL-17A: unchanged
  TNFα: unchanged
Intracellular cytokines; Th40 cells, dLN or spleen
  intracellular IL-10: no difference in intracellular IL-10 expression
Intracellular cytokines; conventional CD4 T cells from dLN, day 33
  intracellular IL-10: increase in intracellular IL-10
NOD mice
  development of diabetes in NOD mice: significant effects on the development of diabetes
EAE induced C57BL/6 mice; 25 μg IV on days -3, -1, 13, 20, 27, versus PBS control
  EAE disease course: significantly less severe
EAE induced C57BL/6 mice; pretreated days -3, -1, further treatments days 6, 11, 13, 15, versus control
  EAE disease course: significantly less severe disease course
EAE induced C57BL/6 mice; pretreated, boosts from day 6 versus from day 13
  EAE disease severity, early versus later boosts: overall less severe disease if the boosts started early
EAE induced C57BL/6 mice; treat-at-symptom group, IV on days 11, 13, 15
  EAE disease course: less severe disease course compared to control
CD62L
  number of CD62L expressing cells: no difference in number of CD62L expressing cells

## KGYY (listed as Mus musculus)
EAE induced C57BL/6 mice; 4-mer administered prior to onset and then post onset, versus untreated mice
  EAE scores: lower EAE scores compared to untreated mice

## WAKKGYYTMK [10-mer]
NOD mice
  development of diabetes in NOD mice: significant effects on the development of diabetes
